What follows are compounds tested against Calcium-dependent protein kinase 1 (Plasmodium falciparum (isolate 3D7)) (UniProt P62344) (assay: PfCDPK1 kinase inhibitors, biochemical, TCAMS library (AID 1159585;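 also: inhibitors leave more ATP so luminescence rises with inhibition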)). Settings: recombinant PfCDPK1, Kinase-Glo ATP depletion luminescence.
Calcium-dependent protein kinase 1 (Plasmodium falciparum (isolate 3D7)), sequence (P62344 whole entry, looked up): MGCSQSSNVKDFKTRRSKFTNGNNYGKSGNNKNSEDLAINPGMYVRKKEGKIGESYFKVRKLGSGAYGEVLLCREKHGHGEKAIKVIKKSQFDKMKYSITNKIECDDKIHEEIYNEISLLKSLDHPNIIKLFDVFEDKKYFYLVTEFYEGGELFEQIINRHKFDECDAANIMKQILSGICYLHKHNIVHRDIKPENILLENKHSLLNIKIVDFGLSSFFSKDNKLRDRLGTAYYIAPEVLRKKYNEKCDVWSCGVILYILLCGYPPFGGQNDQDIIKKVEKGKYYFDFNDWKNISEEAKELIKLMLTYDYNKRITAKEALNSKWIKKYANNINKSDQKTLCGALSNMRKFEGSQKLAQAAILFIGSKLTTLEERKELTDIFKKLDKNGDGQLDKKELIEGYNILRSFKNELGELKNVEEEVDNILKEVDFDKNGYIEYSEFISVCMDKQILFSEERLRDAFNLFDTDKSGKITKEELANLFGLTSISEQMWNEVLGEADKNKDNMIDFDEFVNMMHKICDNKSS

Row | Compound | IC50 [nM]
1 | COc1cccc(CNCC(C)(C)c2nc(-c3ccc(Cl)c(O)c3)c(-c3ccncc3)[nH]2)c1 | 275
2 | CC(C)(C)CNCC(C)(C)c1nc(-c2ccc(Cl)c(O)c2)c(-c2ccncc2)[nH]1 | 159
3 | Cc1cccc2[nH]c(-c3cc(-c4cn[nH]c4)cnc3N)nc12 | 296
4 | O=C(NCCN1CCCCC1)c1cccc(Nc2nccc(Nc3ccc(Oc4ccccc4)cc3)n2)c1 | 250
5 | COc1cc(-c2nc(C(C)(C)CN)[nH]c2-c2ccncc2)ccc1Br | 159
6 | CN(C)Cc1cccc(-c2cc3c(-c4cnn(C)c4)c(Cl)cnc3[nH]2)c1 | 402
7 | N#CCc1ccc(Nc2nccc(Nc3ccc(Oc4ccccc4)cc3)n2)cc1 | 798
8 | O=C(Nc1cccc(-c2nn3ccccc3c2-c2ccnc(Nc3ccc(-c4ccn[nH]4)cc3)n2)c1)c1c(F)cccc1F | 22
9 | CC(C)(CNC(=O)[C@H]1CCCCN1)c1nc(-c2ccc(Cl)c(O)c2)c(-c2ccncc2)[nH]1 | 164
10 | NC(=O)c1ccccc1Nc1nc(Nc2ccn[nH]2)ncc1Cl | 186
11 | COc1ccc(-c2cnc3ccc(NCCCO)nn23)cc1OC | 361
12 | CCn1c(-c2nonc2N)nc2c(-c3ccccc3)ncc(OCCCNCCCN3CCOCC3)c21 | 42
13 | CN1CCN(c2ccc(Nc3nccc(-c4cnn5ncccc45)n3)cc2Cl)CC1 | 232
14 | O=c1[nH]ccc2nc(N[C@@H]3CCNC3)nc(Nc3ccc4c(c3)S(=O)(=O)CC4)c12 | 235
15 | CCNC(=O)Nc1ccc(-c2cnc(N)c(-c3nc4ccc(OC)cc4[nH]3)c2)cc1 | 145
16 | Clc1ccc(-c2cnc3ccc(NCCc4cccnc4)nn23)cc1 | 371
17 | CC(C)(CNC(=O)C1CCN(CCOc2ccc(Cl)cc2)CC1)c1nc(-c2ccc(Cl)c(O)c2)c(-c2ccncc2)[nH]1 | 471
18 | CC(C)(CNC(=O)[C@@H]1CCCCN1)c1nc(-c2ccc(Cl)c(O)c2)c(-c2ccncc2)[nH]1 | 192
19 | NS(=O)(=O)c1cccc(Nc2nc(N[C@@H]3CCNC3)nc3cc[nH]c(=O)c23)c1 | 83
20 | CNC(=O)c1ccccc1Nc1nc(Nc2ccc(C(=O)O)cc2)ncc1Cl | 246

Row | Compound | IC50 [nM]
21 | CCn1c(-c2nonc2N)nc2c(-c3cccc(NC(=O)Nc4ccc5c(c4)CCC5)c3)ncc(OCCCN)c21 | 85
22 | CCCN1CCN(CCNC(=O)c2cccc(Nc3nccc(Nc4ccc(Oc5ccccc5)cc4)n3)c2)CC1 | 336
23 | CC(C)(NCc1ncc[nH]1)c1nc(-c2ccc(Cl)c(O)c2)c(-c2ccncc2)[nH]1 | 144
24 | CC(C)(CNCCOc1ccc(Cl)cc1)c1nc(-c2ccc(Cl)c(O)c2)c(-c2ccnc(N)n2)[nH]1 | 755
25 | NCC(NC(=O)c1ccc(-c2c[nH]c3ncccc23)s1)c1ccccc1 (centres undefined) | 29
26 | CCN(CC)CCCOc1ccc(Nc2nccc(-c3c(-c4cccc(NC(=O)c5c(F)cccc5F)c4)nn4ccccc34)n2)cc1F | 429
27 | COc1ccc(Nc2ncc(Cl)c(Nc3cccnc3C(N)=O)n2)cc1N1CCN(C)CC1 | 559
28 | CS(=O)(=O)c1cccc(-c2cnc3[nH]cc(-c4cccc(CCN)c4)c3c2)c1 | 44
29 | NCCCNc1nc(Nc2cccc(C(N)=O)c2)c2c(=O)[nH]ccc2n1 | 750
30 | NCc1ccc(Nc2nccc(Nc3ccc(-c4ccccc4)cc3)n2)cc1 | 375
31 | CC(C)(CNC(=O)C1CCN(CCOc2ccc(F)c(F)c2)CC1)c1nc(-c2ccc(Cl)c(O)c2)c(-c2ccncc2)[nH]1 | 664
32 | CCn1c(-c2nonc2N)nc2c(-c3cccc(NC(=O)Nc4ccc(C#N)cc4)c3)ncc(OCCCN)c21 | 235
33 | COc1ccc(Nc2ncc(OC)c(Nc3ccccc3C(N)=O)n2)cc1N1CCN(C)CC1 | 967
34 | CC(C)(CNC(=O)C1CCN(Cc2ccc(Cl)cc2)CC1)c1nc(-c2ccc(Cl)c(O)c2)c(-c2ccncc2)[nH]1 | 347
35 | CCn1c(-c2nonc2N)nc2c(-c3cccc(NC(=O)Nc4ccccc4Cl)c3)ncc(OCCCN)c21 | 72
36 | NS(=O)(=O)CCc1cccc(Nc2nccc(-c3c(-c4cccc(NC(=O)c5c(F)cccc5F)c4)nn4ccccc34)n2)c1 | 20
37 | O=C(NCCCN1CCCCC1)c1cccc(Nc2nccc(Nc3ccc(Oc4ccccc4)cc3)n2)c1 | 243
38 | CC(c1cccc(Nc2nccc(-c3c(-c4cccc(NC(=O)c5c(F)cccc5F)c4)nn4ncccc34)n2)c1)S(C)(=O)=O (centres undefined) | 95
39 | CNC(=O)c1ccccc1Nc1nc(Nc2cccc(CS(C)(=O)=O)c2)ncc1C | 145
40 | c1ccc(Oc2ccc(Nc3ccnc(Nc4ccc(OCCN5CCCCC5)cc4)n3)cc2)cc1 | 701

Continued by falling IC50, values first:

Row | IC50 [nM] | Compound
41 | 975 | Oc1cc(-c2nc(-c3ccccc3)[nH]c2-c2ccncc2)ccc1Cl
42 | 959 | CCn1c(-c2nonc2N)nc2c(-c3cccc(NC(=O)Nc4ccc(C(F)(F)F)cc4)c3)ncc(OCCCN)c21
43 | 915 | CN(C)CCN(C)Cc1nc(-c2ccc3c(Nc4ccc(Oc5ccccc5)cc4)ccnc3c2)cs1
44 | 913 | COCCNCc1cccc(-c2ccc3c(Nc4ccc(Oc5cccnc5)cc4)ccnc3c2)c1
45 | 845 | CN(C)CCNCc1cccc(-c2ccc3c(Nc4ccc(Oc5ccccn5)cc4)ccnc3c2)c1
46 | 834 | Nc1ncc(-c2cn[nH]c2)cc1-c1nc2ccc(Cl)cc2[nH]1
47 | 718 | CN(C)CCN(C)Cc1ccc(-c2ccc3c(Nc4ccc(Oc5ccccc5)cc4)ccnc3c2)o1
48 | 552 | CS(=O)(=O)Nc1cccc(-c2cnc3[nH]cc(-c4ccc(CN)cc4)c3c2)c1
49 | 513 | CN(C)Cc1ccc(-c2ccc3c(Nc4ccc(Oc5ccccn5)cc4)ccnc3c2)o1
50 | 503 | OC1CCC(Nc2ccc3ncc(-c4ccc(Cl)cc4)n3n2)CC1 (centres undefined)
51 | 501 | COc1ccc2nc(-c3cc(-c4ccc(NC(C)=O)cc4)cnc3N)[nH]c2c1
52 | 492 | NC[C@H](CC1CCCCC1)NC(=O)c1ccc(-c2ccnc3[nH]ccc23)s1
53 | 469 | CC(C)(CNCc1ccc(F)c(F)c1)c1nc(-c2ccc(Cl)c(O)c2)c(-c2ccnc(N)n2)[nH]1
54 | 438 | CC(C)(CNCc1ccc(OC(F)(F)F)cc1)c1nc(-c2ccc(Cl)c(O)c2)c(-c2ccncc2)[nH]1
55 | 425 | CC(C)(CNC(=O)C1CCN(Cc2ccoc2)CC1)c1nc(-c2ccc(Cl)c(O)c2)c(-c2ccncc2)[nH]1
56 | 425 | CC(=O)Nc1cccc(Nc2nccc(Nc3ccc(Oc4ccccc4)cc3)n2)c1
57 | 406 | CN1CCN(Cc2ccc(-c3ccc4c(Nc5ccc(Cl)cc5F)ccnc4c3)o2)CC1
58 | 390 | COc1ccc(-c2cnc3[nH]cc(-c4ccncc4)c3c2)cc1OC
59 | 387 | COc1ccc(C(=O)NCC(C)(C)c2nc(-c3ccc(Cl)c(O)c3)c(-c3ccncc3)[nH]2)cc1OCCN(C(C)C)C(C)C
60 | 379 | COc1ccc(-c2cnc3ccc(NC4CCC(O)CC4)nn23)cn1 (centres undefined)
61 | 246 | N#Cc1ccc(-c2cnc3ccc(NCCc4cccnc4)nn23)cc1
62 | 190 | CC(C)(CNCc1ccccc1)c1nc(-c2ccc(Cl)c(O)c2)c(-c2ccncc2)[nH]1
63 | 186 | COc1ccc(CNCC(C)(C)c2nc(-c3ccc(Cl)c(O)c3)c(-c3ccncc3)[nH]2)cc1
64 | 186 | Cc1nnc(-c2cccc(Nc3ccnc4cc(-c5nccs5)ccc34)c2)o1
65 | 180 | O=C(NCCCN1CCOCC1)c1cccc(Nc2nccc(Nc3ccc(Oc4ccccc4)cc3)n2)c1
66 | 179 | CC(C)(CNC(=O)[C@H]1CCCN1)c1nc(-c2ccc(Cl)c(O)c2)c(-c2ccncc2)[nH]1
67 | 168 | CN(C)CCOc1ccc(-c2cc(-c3ccc(Cl)c(O)c3)c(-c3ccnc(N)n3)o2)cc1

Row | IC50 [nM] | Compound
68 | 165 | Nc1ncnc2occ(-c3ccc(NC(=O)Nc4cc(C(F)(F)F)ccc4F)cc3)c12
69 | 164 | O=C(Nc1cccc(-c2nn3ccccc3c2-c2ccnc(Nc3cccc(-c4cnco4)c3)n2)c1)C1CCCCC1
70 | 150 | Nc1ncc(-c2cn[nH]c2)cc1-c1nc2ccc(F)cc2[nH]1
71 | 150 | COCCNCc1ncsc1-c1ccc2c(Nc3cc(O)c(Cl)cc3F)ccnc2c1
72 | 145 | COc1cc2nccc(Nc3ccc(Oc4ccccc4)cc3)c2cc1OC
73 | 138 | CCn1c(-c2nonc2N)nc2c(-c3cccc(Cl)c3)ncc(OCCCNCCc3cnc[nH]3)c21
74 | 125 | Cc1ccc(O)cc1Nc1ccnc2cc(-c3cccc(CNCCS(C)(=O)=O)c3)ccc12
75 | 115 | Oc1cccc(-c2cnc3ccc(NCc4ccc(F)cc4)nn23)c1
76 | 110 | O=S1(=O)NCc2ccc(Nc3nccc(Nc4ccc5c(cnn5Cc5ccccc5)c4)n3)cc21
77 | 94 | CCn1c(-c2nonc2N)nc2c(-c3ccccc3)ncc(OCCCCNCCc3ncc[nH]3)c21
78 | 89 | COc1ccc(Nc2ncc(C#N)c(Nc3ccccc3C(N)=O)n2)cc1N1CCN(C)CC1
79 | 76 | Cc1cc(Nc2ncc(Cl)c(Nc3ccccc3C(N)=O)n2)n[nH]1
80 | 71 | CS(=O)(=O)CCNCc1cccc(-c2ccc3c(Nc4cc(O)c(Cl)cc4F)ccnc3c2)c1
81 | 60 | COc1cc(Nc2nccc(-c3c(-c4cccc(NC(=O)c5c(F)cccc5F)c4)nn4ccccc34)n2)cc(OC)c1OC
82 | 58 | NC(=O)c1ccccc1Nc1nc(Nc2cccc(N3CCN(CCO)CC3)c2)ncc1Cl
83 | 51 | CCn1c(-c2nonc2N)nc2c(-c3ccc(CO)o3)ncc(OCCCN)c21
84 | 49 | CNCC(C)(C)c1nc(-c2ccc(Cl)c(O)c2)c(-c2ccncc2)[nH]1
85 | 46 | Cn1cc(-c2ccnc3[nH]c(-c4cccc(CNC5CCC(O)CC5)c4)cc23)cn1 (centres undefined)
86 | 44 | CCn1c(-c2nonc2N)nc2c(-c3cccc(NC(=O)Nc4ccc(Cl)cc4)c3)ncc(OCCCN)c21
87 | 40 | Cc1cc(F)ccc1-c1nc(Nc2ccncc2)c2ccn(C)c2n1
88 | 40 | O=C(Nc1c(F)cccc1F)c1cccc(-c2nn3ccccc3c2-c2ccnc(Nc3cccc(-c4cnco4)c3)n2)c1
89 | 35 | CN1CCN(c2ccc(Nc3nccc(-c4c(-c5cccc(NC(=O)c6c(F)cccc6F)c5)nn5ccccc45)n3)cc2)CC1
90 | 20 | CS(=O)(=O)Cc1ccc(Nc2nccc(-c3c(-c4cccc(NC(=O)c5c(F)cccc5F)c4)nn4ccccc34)n2)cc1
91 | 19 | CC(C)(CN)c1nc(-c2ccc(Br)c(O)c2)c(-c2ccncc2)[nH]1
92 | 15 | CC(=O)Nc1cccc(Nc2nccc(-c3c(-c4cccc(NC(=O)c5c(F)cccc5F)c4)nn4ncccc34)n2)c1
93 | 13 | CC(C)(CN)c1cc(-c2ccc(Cl)c(O)c2)c(-c2ccncc2)o1
94 | 12 | CN1CCN(c2ccc(Nc3ncc(Cl)c(Nc4cccnc4C(N)=O)n3)cc2)CC1
